Data as given in patent EP3072514A1, “Novel oral anticoagulants (NOACs) for preventing development and aggravation of atrial fibrillation” (Université Pierre et Marie Curie - Paris 6 (UPMC), priority 2015, dated 2016).

Key:
[1] = Plasma concentration by LC-MS/MS in I/R rats; set-up: species or system Male OFA Sprague-dawley rats; settings: rat, in vivo, sc
From the text: (§1) • Figure 1 is a combination of two graphs showing left atrium (LA) area after one month of treatment with DTI Dabigatran (A) or S35792 (B). Vehicle (V) is 60% H2O/40% PEG 300 for dabigatran and saline for S35972. Treatment of rats started just after thoracotomy without (Sham) or with occlusion of left coronary artery followed by reperfusion (I/R). Results are presented as mean +/- S.E.M, *P<0.05, **P<0.01 and *** P<0.001 vs Sham; ^##P<0.01 and ^###P<0.001 vs untreated I/R. • Figure 2 is a combination of graphs showing left ventricular end-diastolic (LVED) diameter and fractional shortening (FS) after one month of treatment with Dabigatran (A) or S35792 (B). Vehicle (V) is 60% H2O/40% PEG 300 for dabigatran and saline for S35972. Treatment of rats started just after thoracotomy without (Sham) or with occlusion of left coronary artery followed by reperfusion (I/R). Results are presented as mean +/- S.E.M. * P<0.05; ** P<0.001, *** P<0.001 vs Sham; #P<0.05 vs untreated I/R. • Figure 3 is a combination of two graphs showing thrombin time (TT), which reflects anticoagulant activity, and plasma concentrations of Dabigatran (A) and S35792 (B) in rats after throracotomy with occlusion of left coronary artery followed by reperfusion (I/R). Vehicle (V) is 60% H2O/40% PEG 300 for dabigatran and saline for S35972. […] DTI plasma levels are quantified using LC-MS/MS. TT are expressed as mean +/- S.E.M with reference to the mean value of sham animals that underwent thoracotomy only. *** P<0.001 vs untreated I/R. • Figure 4 is a combination of three graphs showing left atrium (LA) area (A) and diameter (B) and left ventricle end-diastolic (LVED) diameter (C) after two months of treatment with S35972. […] LA area was measured by bidimensional echocardiography. LA and LVED diameters were measured in time-motion mode. […] AF duration is measured as the time between the end of the electric stimulation and the return to sinusoidal rhythm. […] Expression of mRNA was measured with real-time qPCR. […] Expression of mRNA was measured with real-time qPCR. […]

β-MHC = assay: mRNA expression by real-time qPCR in atria and ventricle of I/R rats; format: in vivo, Male OFA Sprague-dawley rats
From the text: (§2) • Figure 1 is a combination of two graphs showing left atrium (LA) area after one month of treatment with DTI Dabigatran (A) or S35792 (B). Vehicle (V) is 60% H2O/40% PEG 300 for dabigatran and saline for S35972. Treatment of rats started just after thoracotomy without (Sham) or with occlusion of left coronary artery followed by reperfusion (I/R). […] Vehicle (V) is 60% H2O/40% PEG 300 for dabigatran and saline for S35972. Treatment of rats started just after thoracotomy without (Sham) or with occlusion of left coronary artery followed by reperfusion (I/R). Results are presented as mean +/- S.E.M. * P<0.05; ** P<0.001, *** P<0.001 vs Sham; #P<0.05 vs untreated I/R. • Figure 3 is a combination of two graphs showing thrombin time (TT), which reflects anticoagulant activity, and plasma concentrations of Dabigatran (A) and S35792 (B) in rats after throracotomy with occlusion of left coronary artery followed by reperfusion (I/R). Vehicle (V) is 60% H2O/40% PEG 300 for dabigatran and saline for S35972. Tests were carried out on blood collected by cardiac puncture at sacrifice (i.e. for Dabigatran, 90 minutes after last oral administration). DTI plasma levels are quantified using LC-MS/MS. TT are expressed as mean +/- S.E.M with reference to the mean value of sham animals that underwent thoracotomy only. *** P<0.001 vs untreated I/R. • Figure 4 is a combination of three graphs showing left atrium (LA) area (A) and diameter (B) and left ventricle end-diastolic (LVED) diameter (C) after two months of treatment with S35972. Treatment of rats started just after thoracotomy without (Sham) or with occlusion of left coronary artery followed by reperfusion (I/R). LA area was measured by bidimensional echocardiography. LA and LVED diameters were measured in time-motion mode. Results are presented as mean +/- S.E.M. *P<0.05, **P<0.01 and *** P<0.001 vs Sham; ^#P<0.05 ^###P<0.001 vs untreated I/R. • Figure 5 is a graph showing the impact of S35972 administration during two months on the duration of an episode of AF in rats undergone thoracotomy without (Sham) or with occlusion of left coronary artery followed by reperfusion (I/R). AF duration is measured as the time between the end of the electric stimulation and the return to sinusoidal rhythm. […] Rats undergone thoracotomy without (Sham) or with occlusion of left coronary artery followed by reperfusion (I/R). Expression of mRNA was measured with real-time qPCR. […] Expression of mRNA was measured with real-time qPCR. […] Expression of mRNA was measured with real-time qPCR. […] LA area was measured by bidimensional echocardiography. LVED and LA diameters were measured in time-motion mode. […] AF duration is measured as the time between the end of the electric stimulation and return to sinusoidal rhythm. […]

α-MHC = assay: as above; format: in vivo, Male OFA Sprague-dawley rats
From the text: as §2

paroxysmal AF = assay: Duration of an AF episode induced by rapid stimulation of the left atrium with an esophageal electrode in I/R rats; format: in vivo, Male OFA Sprague-dawley rats; settings: 6 mg/kg/day
From the text: as §1, with “(B).” for “(B). Vehicle (V) is 60% H2O/40% PEG 300 for dabigatran and saline for S35972. Treatment of rats started just after thoracotomy without (Sham) or with occlusion of left coronary artery followed by reperfusion (I/R). Results are presented as mean +/- S.E.M. * P<0.05; ** P<0.001, *** P<0.001 vs Sham; #P<0.05 vs untreated I/R. • Figure 3 is a combination of two graphs showing thrombin time (TT), which reflects anticoagulant activity, and plasma concentrations of Dabigatran (A) and S35792 (B) in rats after throracotomy with occlusion of left coronary artery followed by reperfusion (I/R). Vehicle (V) is 60% H2O/40% PEG 300 for dabigatran and saline for S35972.”

blood coagulation = assay: Thrombin time (TT) on blood collected by cardiac puncture at sacrifice of I/R rats; format: in vivo, Male OFA Sprague-dawley rats; settings: subcutaneous osmotic minipump, with reference to the mean value of sham animals
From the text: • Figure 1 is a combination of two graphs showing left atrium (LA) area after one month of treatment with DTI Dabigatran (A) or S35792 (B). Vehicle (V) is 60% H2O/40% PEG 300 for dabigatran and saline for S35972. Treatment of rats started just after thoracotomy without (Sham) or with occlusion of left coronary artery followed by reperfusion (I/R). […] Vehicle (V) is 60% H2O/40% PEG 300 for dabigatran and saline for S35972. Treatment of rats started just after thoracotomy without (Sham) or with occlusion of left coronary artery followed by reperfusion (I/R). Results are presented as mean +/- S.E.M. * P<0.05; ** P<0.001, *** P<0.001 vs Sham; #P<0.05 vs untreated I/R. • Figure 3 is a combination of two graphs showing thrombin time (TT), which reflects anticoagulant activity, and plasma concentrations of Dabigatran (A) and S35792 (B) in rats after throracotomy with occlusion of left coronary artery followed by reperfusion (I/R). Vehicle (V) is 60% H2O/40% PEG 300 for dabigatran and saline for S35972. […] DTI plasma levels are quantified using LC-MS/MS. TT are expressed as mean +/- S.E.M with reference to the mean value of sham animals that underwent thoracotomy only. *** P<0.001 vs untreated I/R. • Figure 4 is a combination of three graphs showing left atrium (LA) area (A) and diameter (B) and left ventricle end-diastolic (LVED) diameter (C) after two months of treatment with S35972. […] LA area was measured by bidimensional echocardiography. LA and LVED diameters were measured in time-motion mode. […] AF duration is measured as the time between the end of the electric stimulation and the return to sinusoidal rhythm. […] Expression of mRNA was measured with real-time qPCR. […] Expression of mRNA was measured with real-time qPCR. […] Expression of mRNA was measured with real-time qPCR. […] LA area was measured by bidimensional echocardiography. LVED and LA diameters were measured in time-motion mode. […] AF duration is measured as the time between the end of the electric stimulation and return to sinusoidal rhythm. […]

[2] = tested on: rats with occlusion of left coronary artery followed by reperfusion (I/R); assay: Echocardiographic evaluation of left atrium and left ventricle in rats after ischemia/reperfusion (I/R); format: in vivo, Male OFA Sprague-dawley rats
From the text: • Figure 1 is a combination of two graphs showing left atrium (LA) area after one month of treatment with DTI Dabigatran (A) or S35792 (B). Vehicle (V) is 60% H2O/40% PEG 300 for dabigatran and saline for S35972. Treatment of rats started just after thoracotomy without (Sham) or with occlusion of left coronary artery followed by reperfusion (I/R). […] Vehicle (V) is 60% H2O/40% PEG 300 for dabigatran and saline for S35972. Treatment of rats started just after thoracotomy without (Sham) or with occlusion of left coronary artery followed by reperfusion (I/R). Results are presented as mean +/- S.E.M. * P<0.05; ** P<0.001, *** P<0.001 vs Sham; #P<0.05 vs untreated I/R. • Figure 3 is a combination of two graphs showing thrombin time (TT), which reflects anticoagulant activity, and plasma concentrations of Dabigatran (A) and S35792 (B) in rats after throracotomy with occlusion of left coronary artery followed by reperfusion (I/R). Vehicle (V) is 60% H2O/40% PEG 300 for dabigatran and saline for S35972. Tests were carried out on blood collected by cardiac puncture at sacrifice (i.e. for Dabigatran, 90 minutes after last oral administration). DTI plasma levels are quantified using LC-MS/MS. TT are expressed as mean +/- S.E.M with reference to the mean value of sham animals that underwent thoracotomy only. *** P<0.001 vs untreated I/R. • Figure 4 is a combination of three graphs showing left atrium (LA) area (A) and diameter (B) and left ventricle end-diastolic (LVED) diameter (C) after two months of treatment with S35972. Treatment of rats started just after thoracotomy without (Sham) or with occlusion of left coronary artery followed by reperfusion (I/R). LA area was measured by bidimensional echocardiography. LA and LVED diameters were measured in time-motion mode. Results are presented as mean +/- S.E.M. *P<0.05, **P<0.01 and *** P<0.001 vs Sham; ^#P<0.05 ^###P<0.001 vs untreated I/R. • Figure 5 is a graph showing the impact of S35972 administration during two months on the duration of an episode of AF in rats undergone thoracotomy without (Sham) or with occlusion of left coronary artery followed by reperfusion (I/R). AF duration is measured as the time between the end of the electric stimulation and the return to sinusoidal rhythm. […] Rats undergone thoracotomy without (Sham) or with occlusion of left coronary artery followed by reperfusion (I/R). Expression of mRNA was measured with real-time qPCR. […] Treatment of rats started one month post thoracotomy without (Sham) or with occlusion of left coronary artery followed by reperfusion (I/R). LA area was measured by bidimensional echocardiography. LVED and LA diameters were measured in time-motion mode. […] Rats undergone thoracotomy without (Sham) or with occlusion of left coronary artery followed by reperfusion (I/R). AF duration is measured as the time between the end of the electric stimulation and return to sinusoidal rhythm. Results are presented as mean +/- S.E.M.
Animals were anesthetized with 30 mg/kg sodium pentobarbital, and then intubated and ventilated at 60 respirations/min while body temperature was maintained at 37°C. Rats underwent thoracotomy and their left coronary artery was either left intact (Sham) or occluded with a 4.0 silk suture at 1 mm from the artery origin. Ischemia was maintained for 30 min and the clamp was removed to initiate a definitive reperfusion phase. […]

[3] = atrium, 6 mg/kg/day for 8 weeks post I/R
[4] = ventricle, 6 mg/kg/day post I/R
[5] = 6 mg/kg/d during one month, treatment started one month after the I/R episode

Substance: 4-oxo-3-(2-pyridin-2-ylethylamino)-4,6,7,8-tetrahydro-pyrrolo[1,2-a]pyrazine-6-carboxylic acid 2-ethylcarbamoyl methoxy-benzylamide [S35972]
- plasma concentration ([1]; 3 mg/kg/day): 24.1 ± 5.7 ng/mL
- plasma concentration ([1]; 6 mg/kg/day): 57.2 ± 24.4 ng/mL
- synthesis of β-MHC (mRNA) in left atrium (β-MHC; [3]): prevents the synthesis of β-MHC
- synthesis of β-MHC (mRNA) in the ventricle (β-MHC; [4]): prevents the synthesis of β-MHC
- expression of α-MHC (mRNA) in left atrium (α-MHC; [3]): without impacting the expression of α-MHC
- expression of α-MHC (mRNA) in the ventricle (α-MHC; [4]): without significant impact on the expression of α-MHC
- AF duration (paroxysmal AF; administered 1 month post I/R in rats with dilated atria): tends to decrease AF duration
- duration of episode of paroxysmal AF (paroxysmal AF; eight weeks post I/R): decreases the duration of this episode of paroxysmal AF to the control values
- thrombin time increases by a factor (blood coagulation; 3 mg/kg/day): 3
- thrombin time increases by a factor (blood coagulation; 6 mg/kg/day): 3
- left atrium area ([2]; 3 mg/kg/day for 8 weeks, started just after I/R): decreases the left atrium area
- left atrium diameter [2, 5]: decreased to an intermediate value between Sham and I/R rats
- left ventricle end-diastolic diameter [2, 5]: had no effect
- left atrium area ([2]; 6 mg/kg/d during one month, treatment started one month after the I/R episode (established atrial dilatation)): significantly reduced
